Results published in patent US10508103B2, “Benzimidazole-linked indole compound acting as novel divalent IAP antagonist” (MEDSHINE DISCOVERY INC., priority 2016, dated 2019).
pEC50, pIC50: −log10 of the molar value.

How the values were obtained:
cIAP1-BIR3 Protein = cIAP1-BIR3 Protein (Homo sapiens (Human), UniProt Q13490); assay: Fluorescence polarization affinity of compounds to cIAP1-BIR3; format: binding; details: cIAP1-BIR3 20 nM; 5 nM ARPFAQ-K(5-FAM)-NH2 probe; FP; pH 7.5; read-out: affinity to target protein in vitro, cIAP1-BIR3 Protein (IC50)
cIAP1-BIR3 Protein, sequence (Q13490 253-363): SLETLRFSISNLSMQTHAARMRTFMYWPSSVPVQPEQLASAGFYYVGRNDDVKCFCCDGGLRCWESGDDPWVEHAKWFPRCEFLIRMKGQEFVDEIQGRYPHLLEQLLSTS
Protocol: (§1) Biological Assay 1: affinity of compounds to cIAP1-BIR3, cIAP2-BIR3, XIAP-BIR3 • 1) Affinity of compounds listed in table to cIAP1-BIR3, Ciap2-BIR3, XIAP-BIR3 was tested referring to Nikolovska-Colesks, Z. et.Al. (Analytical Biochemistry,2004,232:261-273) to obtain IC50 value. Generally speaking, in 10-dose IC50 mode, IAP antagonists with different concentrations were diluted in series by 3-fold and fluorescence labelled ARPFAQ-K (5-FAM)-NH2 peptide was used as probe to test compounds binding to protein BIR3 domain. • 2) Test condition: cIAP1-BIR3: 20 nM; cIAP2-BIR3: 60 nM; XIAP-BIR3: 30 nM; 5 nM probe in 100 mM tripotassium phosphate, pH 7.5, 0.1 mg/mL BSA, 0.005% Triton X100 and 0.5% DMSO. • 3) Test procedure: compounds were added into protein with different concentrations by using ECHO (LabCyte), and then the mixture was preincubated for 15 min. The probe was added and the final concentration was 5 nM. After incubating for 60 min, FP was tested and mP was calculated. Experiment results were list in table 1.

cIAP2-BIR3 Protein = cIAP2-BIR3 Protein (Homo sapiens (Human), UniProt Q13489); assay: Fluorescence polarization affinity of compounds to cIAP2-BIR3; format: binding; details: cIAP2-BIR3 60 nM; 5 nM ARPFAQ-K(5-FAM)-NH2 probe; FP; pH 7.5; read-out: affinity to target protein in vitro, cIAP2-BIR3 Protein (IC50)
cIAP2-BIR3 Protein, sequence (Q13489 238-349): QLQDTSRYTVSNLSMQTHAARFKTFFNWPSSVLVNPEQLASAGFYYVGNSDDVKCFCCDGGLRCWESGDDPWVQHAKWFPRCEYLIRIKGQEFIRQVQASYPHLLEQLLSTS
Protocol: as §1

XIAP-BIR3 Protein = XIAP-BIR3 Protein (Homo sapiens (Human), UniProt P98170); assay: Fluorescence polarization affinity of compounds to XIAP-BIR3; format: binding; details: XIAP-BIR3 30 nM; 5 nM ARPFAQ-K(5-FAM)-NH2 probe; FP; pH 7.5; read-out: affinity to target protein in vitro, XIAP-BIR3 Protein (IC50)
XIAP-BIR3 Protein, sequence (P98170 241-356): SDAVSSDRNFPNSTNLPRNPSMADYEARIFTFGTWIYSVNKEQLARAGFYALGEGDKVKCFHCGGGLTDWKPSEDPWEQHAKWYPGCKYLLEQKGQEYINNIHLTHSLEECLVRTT
Protocol: as §1

[1] = system: NF-κB Luciferase Reporter Hela cells; assay: TNF-α inducing NF-κB reporter; format: cell-based; details: Homo sapiens, 6 h, Table 3, 20 ng/mL TNF-α, Bright-Glo luciferase, values given as ranges
Protocol: Biological Assay 2: TNF-α inducing NF-κB reporter
• 1) tested compounds were added into DMSO to give parent liquor (10 mM); • 2) reference compound Birinapant (32 μL, 10 mM) was added into DMSO (128 μL) to give a solution (2 mM); • 3) 0.5 μL reference compound Birinapant (2 mM) and tested compounds (10 mM) were taken by Echo and added into Greiner 96 well black cell culture plate respectively. The initial concentration of the reference compound and tested compound was 10 μM and 50 μM, respectively. Then, the reference compound and tested compounds were diluted at 9 points in series by 5-fold; and every plate was repeated for 3 times. • 4) the reference compound WXFL2012A001 (Birinapant) (final concentration: 10 μM) as HPE and DMSO (final concentration: 0.5%) as ZPE.
• 5) purpose of the three repeated plates: the first plate was used for testing compounds' activity;
the second plate was used for testing cytotoxicity of the compounds; the third plate was used for solution replacement of the first and second plates: mixing inducer TNF-α and medium containing 0.1% FBS, and then being added to the third plate and the resultant mixture was transferred to the first plate where supernatants had been removed.
• 1) removing medium in NF-iBLuciferase Reporter Hela cell culture flask and washing cell once with PBS (10 mL) • 2) adding 0.25% pancreatin (3 mL) to T150 cell culture flask, and placinginto cell incubator (37° C., 5%CO2) and dissociating cell for 3 min, and then medium (10 mL) was added to end dissociation and blowing cells with electric pipette until cells were dispersed into single cell. • 3) Calculating cell density with cell counter Countstar • 4) Adjusting NF-κB Luciferase Reporter Hela density with medium to 2.0×10^5 cells/mL • 5) Adding cells to two Greiner 96 well black cell culture plates containing compounds, (100 μL per well (2.0×10^4 cells/well)), one plate was used for testing compounds' activity, another was used for testing cytotoxicity of the compounds. • 6) Placing cell culture plates into cell incubator (37° C., 5%CO2) and incubatingfor 24 h Second Day TNF-α Inducing • 1) TNF-α (100 μg/mL) was diluted into 20 ng/mL with 0.1% FBS medium and transferredto the third plate with 100 μL per well • 2) Removing medium of the first 96 well black cell culture plate (compound activity testing plate) after 24 h, replacing with fresh medium containing the compound and 20 ng/mL TNF-α in the third plate • 3) Placing cell culture plate into cell incubator (37° C., 5% CO2) and incubatingfor 6 h • 4) after 6 h, compound's activity in the first plate was tested according to Bright-Glo (Promega) manual method, luciferase signal in each well was tested by Envision plate reader • 5) compound's cytotoxicity in the second plate was tested according to ATPlite 1Step (Perkin Elmer) manual method, luciferase signal in each well was tested by Envision plate reader • 6) analyzing with software to obtain EC50 of compound.

| Compound | pIC50 (cIAP1-BIR3 Protein) | pIC50 (cIAP2-BIR3 Protein) | pIC50 (XIAP-BIR3 Protein) | pEC50 [1] |
| --- | --- | --- | --- | --- |
| CCC[C@H](NC(=O)[C@H](C)NC)C(=O)N1C[C@@H](F)C[C@H]1Cn1c(-c2[nH]c3cc(F)ccc3c2C[C@@H]2C[C@H](F)CN2C(=O)[C@@H](NC(=O)[C@H](C)NC)C2CCCCC2)nc2cc(F)ccc21 [Embodiment 36] | > 8.00 | 7.00 to 8.00 | 7.00 to 8.00 | > 8.00 |
| CC[C@H](NC(=O)[C@H](C)NC)C(=O)N1CCC[C@H]1Cc1c(-c2nc3cc(F)ccc3n2C[C@@H]2C[C@H](F)CN2C(=O)[C@@H](NC(=O)[C@H](C)NC)C(C)(C)C)[nH]c2cc(F)ccc12 [Embodiment 38] | > 8.00 | 7.00 to 8.00 | > 8.00 | > 8.00 |
| CC[C@H](NC(=O)[C@H](C)NC)C(=O)N1C[C@@H](F)C[C@H]1Cc1c(-c2nc3cc(F)ccc3n2C[C@@H]2CCCN2C(=O)[C@@H](NC(=O)[C@H](C)NC)C(C)C)[nH]c2cc(F)ccc12 [Embodiment 39] | > 8.00 | 7.00 to 8.00 | > 8.00 | 7.00 to 8.00 |
| CC[C@H](NC(=O)[C@H](C)NC)C(=O)N1C[C@@H](F)C[C@H]1Cc1c(-c2nc3cc(F)ccc3n2C[C@@H]2CCCN2C(=O)[C@@H](NC(=O)[C@H](C)NC)C(C)(C)C)[nH]c2cc(F)ccc12 [Embodiment 40] | > 8.00 | 7.00 to 8.00 | 7.00 to 8.00 | > 8.00 |
| CC[C@H](NC(=O)[C@H](C)NC)C(=O)N1CCC[C@H]1Cn1c(-c2[nH]c3cc(F)ccc3c2C[C@@H]2C[C@H](F)CN2C(=O)[C@@H](NC(=O)[C@H](C)NC)C(C)(C)C)nc2cc(F)ccc21 [Embodiment 42] | > 8.00 | 7.00 to 8.00 | > 8.00 | 7.00 to 8.00 |
| CC[C@H](NC(=O)[C@H](C)NC)C(=O)N1CC(F)(F)C[C@H]1Cc1c(-c2nc3cc(F)ccc3n2C[C@@H]2CC(F)(F)CN2C(=O)[C@H](CC)NC(=O)[C@H](C)NC)[nH]c2cc(F)ccc12 [Embodiment 43] | 7.00 to 8.00 | 7.00 to 8.00 | 7.00 to 8.00 | < 7.00 |
| CN[C@@H](C)C(=O)N[C@H](C(=O)N1CC(F)(F)C[C@H]1Cc1c(-c2nc3cc(F)ccc3n2C[C@@H]2CC(F)(F)CN2C(=O)[C@@H](NC(=O)[C@H](C)NC)C2CC2)[nH]c2cc(F)ccc12)C1CC1 [Embodiment 44] | > 8.00 | 7.00 to 8.00 | > 8.00 | < 7.00 |
| CC[C@H](NC(=O)[C@H](C)NC)C(=O)N1CC(F)(F)C[C@H]1Cc1c(-c2nc3cc(F)ccc3n2C[C@@H]2CC(F)(F)CN2C(=O)[C@@H](NC(=O)[C@H](C)NC)C(C)C)[nH]c2cc(F)ccc12 [Embodiment 46] | > 8.00 | 7.00 to 8.00 | 7.00 to 8.00 | 7.00 to 8.00 |
